Entries after “also recorded” stand apart in the source; their conditions may differ.
Columns and labels:
NMRI mice [1] = assay: Acute self-administration: cocaine reinforcement; type: in vivo; conditions: for nose-poking when saline was the i.v.-reinforcer (per se effect): L-152,804 10 mg/kg p.o. vs vehicle p.o.
NMRI mice [2] = assay: Acute self-administration: food reinforcement; type: in vivo; conditions: L-152,804 10 mg/kg p.o. two hours before; fasted overnight; P=0.573 vs. vehicle pre-treated ensure; FIG. 3
Procedure: The self-administration apparatus used was described above. The end of the PVC tubing, mentioned above, was secured on the outside of the self-administration box at the top of the nose-poke hole, thereby enabling the mice to reach the end of the PVC tube to acquire the content used as reinforcer (ensure protein drink, Abbott Laboratories, USA). The animals fasted overnight, with water still available.
Male NMRI mice received p.o. administration of L-152,804 (10 mg/kg) or corresponding vehicle. Two hours later, the animals were subjected to the self-administration procedure described above with access to PVC tubing containing ensure (nvehicle=11, nL-152,804=13) or without any drink content (=control, n=16).
Data were analyzed using SPSS (SPSS Inc, USA). In the self-administration experiments, two animals from the L-152,804 experiment were excluded. […] In the first and third self-administration experiments, data were analyzed using one-way analysis of variance (ANOVA) followed by post-hoc LSD t-test. […] Subsequently, after significant treatment effect of cocaine, data were analyzed using one-way ANOVA followed by post-hoc LSD t-tests. […]

C57Bl/6 mice = assay: Cocaine-induced conditioned place preference (CPP); type: in vivo
From the text: The CPP apparatus consisted of eight parallel set-ups, each consisting of two separate compartments measuring 19×19×19 cm. The walls extended upwards with clear Plexiglas plates to a total height of 43 cm, having the function of preventing the mice from jumping out, and at the same time allowing light to enter. The two compartments differed in visual as well as tactile cues. In one compartment, the walls and floor were painted white, and the floor was smooth, whereas in the other compartment, the walls were black, and the floor provided texture by insertion of a grey Lego plate. During habituation, post-conditioning test, extinction, and reinstatement, the mice were free to move between the two compartments through a square hole (3.5×3.5 cm). During conditioning, this opening was closed by insertion of a wooden plate. The movements of the animals were measured with the video-tracking program EthoVision (Noldus, Netherlands).
The CPP procedure consisted of the following consecutive phases: Habituation (2 days), conditioning (8 days), post-conditioning test (1 day), extinction (3 days), reinstatement test (1 day). Habituation (days 1-2): Each day the mice were placed into the white compartment of the CPP boxes with the door open and allowed to explore the compartments for 20 minutes to become habituated to the CPP apparatus. On the second day (i.e., the pre-conditioning test), the time spent in each of the two compartments (black or white) was recorded. This determined the preferred compartment of each mouse. No injections were given during these sessions.
Conditioning (days 3-10): Before eight daily 30 minutes conditioning sessions the animals received i.p. injections of either drug or isotonic saline, and the door between the two compartments was closed. Drug groups received drug injections on drug-days and were placed 2-5 min. later in their non-preferred compartment. On non drug-days, these animals received vehicle injections and were subsequently placed in their preferred compartment. All control animals received injections with vehicle each day and were placed in alternating compartments (black/white) on alternating days. […]
Post-conditioning test (day 11): The test was conducted on the day after the last conditioning session. Mice were allowed free access to both compartments for 20 minutes during which the amount of time spent in each compartment was recorded as described above for the pre-conditioning test. […]
Extinction and reinstatement: During an extinction period of three days the animals were exposed to the apparatus as during the post-conditioning test for 20 minutes each day with open doors and without prior injection. […] Subsequently, the time spent in the previously drug-paired (non-preferred) compartment was recorded for 20 min. […]

NMRI mice [3] = assay: Cocaine-induced hyperactivity; type: in vivo
From the text: The apparatus for measuring locomotor hyperactivity consisted of 16 activity Plexiglas boxes (37×21×17 cm). Eight dual photocells placed throughout the length of each box, detected movement of the animals. A plate was placed on top of the box in order to keep the mice from jumping out during the sessions. Sawdust was placed in a thin layer on the floor of the box. All activity boxes were connected to an interface (SG 502, Med. Associates Inc., East Fairfield, Vt., USA), measuring each beam-break. A computer and activity software (Ellegaard Systems, DK) were used to record the results from each activity box.
In all activity experiments an i.p. injection of either vehicle or drug was administered 3-7 minutes before testing. The animal was then placed in an activity box and the activity was measured for 30 minutes. […]
Conditioned place preference data were analysed using repeated measure one-way ANOVA between days within each group on all four groups of both experiments. […] Post-conditioning test and reinstatement presented as percent of its own saline group were analysed with a one-way ANOVA followed by post-hoc LSD t-tests. Total crossings were analysed with a one-way ANOVA followed by post-hoc LSD t-tests. Data presented as 5 minutes intervals was analysed using repeated measures ANOVA with treatment as between subjects factor followed by LSD post-hoc t-test. […]

Y5 receptor = target: T1, Y5 receptor (Mus musculus, UniProt O70342); conditions: cited from earlier work
T1 construct: close to 80% Y5 receptor occupancy in the mouse brain has also been observed between one and four hours after oral administration; host or cells: mouse brain (in vivo, after oral dosing)
T1 sequence (O70342 1-466): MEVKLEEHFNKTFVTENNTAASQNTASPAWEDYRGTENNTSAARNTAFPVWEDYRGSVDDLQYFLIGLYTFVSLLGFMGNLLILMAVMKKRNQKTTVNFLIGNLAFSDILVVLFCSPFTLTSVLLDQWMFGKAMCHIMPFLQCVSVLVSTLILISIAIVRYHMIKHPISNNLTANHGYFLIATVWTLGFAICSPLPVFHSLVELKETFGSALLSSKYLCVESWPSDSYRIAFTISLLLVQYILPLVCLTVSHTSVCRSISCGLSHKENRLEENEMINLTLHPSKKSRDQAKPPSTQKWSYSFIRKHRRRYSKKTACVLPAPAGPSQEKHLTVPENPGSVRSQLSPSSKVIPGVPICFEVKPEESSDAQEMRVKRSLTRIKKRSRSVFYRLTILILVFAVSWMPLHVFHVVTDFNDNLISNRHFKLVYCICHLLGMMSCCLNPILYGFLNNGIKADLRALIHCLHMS

[4] = 2 hrs after oral administration, 10 mg/kg; cited from earlier work
rats = rats treated with L-152,804; cited from earlier work
Y5-KO and WT mice = assay: Acute self-administration of cocaine in Y5-KO and WT mice; type: in vivo; conditions: inverted U-shaped curve, FIG. 4

Compound: CC1(C)CC(=O)C(C2C3=C(CC(C)(C)CC3=O)Oc3ccccc32)C(=O)C1 [L-152,804, 5,5-Dimethyl-2-(2,3,4,9-tetrahydro-3,3-dimethyl-1oxo-1H-xanthen-9-yl)-1,3-cyclohexanedione]
- nose-poking when saline was the i.v.-reinforcer (per se effect) (NMRI mice [1]): no effect; also recorded: did not significantly decrease
- nose-poking when saline was the i.v.-reinforcer (per se effect) (NMRI mice [1]; listed as L-152,802): No per se effect
- self-administration of cocaine (nose-poking), significance of decrease (NMRI mice [1]; L-152,804 10 mg/kg p.o., cocaine 0.03 mg/kg/infusion, P=0.004): reaching significance
- cocaine self-administration vs. saline i.v. in L-152,804-pretreated mice (NMRI mice [1]; L-152,804 10 mg/kg p.o., cocaine 0.01-1.0 mg/kg/infusion, post-hoc LSD t-tests): no significant doses vs. saline; also recorded: did not self-administer cocaine at a significantly higher rate
- downward shift of the cocaine dose-response curve (efficacy of cocaine) (NMRI mice [1]; L-152,804 10 mg/kg p.o., vertex of fitted parabola, likelihood ratio test P<0.001): shifted down; also recorded: shifted significantly downward
- shift of the cocaine dose-response curve to the right or left (potency of cocaine) (NMRI mice [1]; L-152,804 10 mg/kg p.o., vertex of fitted parabola, likelihood ratio test P=0.25): neither shifted significantly to the right nor to the left; also recorded: showed a tendency toward a rightward shift
- self-administration of cocaine (nose-poking), significance of decrease (NMRI mice [1]; L-152,804 30 mg/kg p.o., cocaine 0.03 mg/kg/infusion, P=0.002): reaching significance
- self-administration of cocaine (nose-poking) (NMRI mice [1]; cocaine 0.03 mg/kg/infusion i.v., L-152,804 3, 10 or 30 mg/kg p.o. two hours before, FIG. 1): significantly and dose-dependently decreased
- nose-poking frequency of i.v.-administered cocaine at the other self-administered cocaine dose (NMRI mice [1]; second experiment, L-152,804 10 mg/kg p.o., cocaine 0.01 mg/kg/infusion as printed): showed a similar trend
- nose-poking frequency of i.v.-administered cocaine at the peak dose of cocaine (NMRI mice [1]; second experiment, L-152,804 10 mg/kg p.o., cocaine 0.03 mg/kg/infusion, P=0.006, FIG. 2): significantly reduced
- food (ensure protein drink) self-administration (NMRI mice [2]): had no effect; also recorded: did not alter
- induction of cocaine place preference (post-conditioning vs. pre-conditioning test) (C57Bl/6 mice; L-152,804 3, 10, 30 mg/kg p.o. two hours prior to cocaine 10 mg/kg i.p. conditioning, FIG. 5A): did not attenuate; also recorded: caused significant place preference similar to that observed without the Y5-antagonist
- reinstatement of cocaine-induced place preference vs. own pre-conditioning test (C57Bl/6 mice; L-152,804 3, 10, 30 mg/kg p.o., cocaine priming 5 mg/kg, FIG. 5A): absent; also recorded: prevented significant reinstatement
- reinstatement as percent of the vehicle p.o./saline i.p. group (C57Bl/6 mice; L-152,804 3, 10, 30 mg/kg p.o., cocaine priming 5 mg/kg, FIG. 5B): dose-dependently attenuated; also recorded: only the highest dose of L-152,804 (30 mg/kg) blocked reinstatement
- extinction of cocaine place preference (C57Bl/6 mice; L-152,804 3, 10, 30 mg/kg p.o., three extinction days, vehicle/cocaine group reached full extinction on day 3): significantly faster; also recorded: full extinction already on the first extinction day
- cocaine-induced hyperactivity (locomotor activity, beam crossings) (NMRI mice [3]; L-152,804 10 mg/kg p.o. two hours prior to cocaine 10 mg/kg, 30 min observation and 5-min intervals, FIG. 7): appeared to be attenuated; also recorded: prevented a significant cocaine-induced increase in locomotor activity
- locomotor activity in saline i.p.-treated animals (NMRI mice [3]; L-152,804 10 mg/kg p.o. vs vehicle): No effect
- Y5 receptor occupancy in mouse brain (Y5 receptor; 2 h after oral administration of L-152,804): 80%
- Y5 receptor occupancy in the mouse brain (Y5 receptor; between one and four hours after oral administration of L-152,804): ~80%
- amount of L-152,804 in the rat brain [4]: significant amount
- distance travelled (rats): no change in distance travelled

Compound: COC(=O)[C@H]1[C@@H](OC(=O)c2ccccc2)C[C@@H]2CC[C@H]1N2C [cocaine]
- cocaine dose at which self-administration reaches maximum (NMRI mice [1]; vehicle p.o. pre-treated NMRI mice, inverted U-shaped curve): 0.03 mg/kg/infusion
- cocaine dose at which self-administration reaches maximum (Y5-KO and WT mice): 0.03 mg/kg/infusion

— patent US20110060037A1, “USE OF NPY Y5 RECEPTOR ANTAGONISTS FOR THE PREVENTION OF PSYCHO-STIMULANT AND OPIOID ABUSE” (priority 2008, published 2011)
